The values that follow come from patent US10294227B2, “Compounds” (UNIVERSITY COURT OF THE UNIVERSITY OF EDINBURGH, priority 2015, dated 2019).

The conditions of data set [1]: PBS, aqueous buffer.
The next data set deals with CYP1A2 (Homo sapiens (Human), UniProt P05177). The data set is described as follows: CYP P450 inhibition.
The target of another data set is CYP3A4 (Homo sapiens (Human), UniProt P08684). The data set can be described thus: CYP P450 inhibition.
In the next data set the target is CYP2C9 (Homo sapiens (Human), UniProt P11712). The data set is described as follows: CYP P450 inhibition.
The target in the next data set is CYP2D6 (Homo sapiens (Human), UniProt P10635). The data set can be described thus: CYP P450 inhibition.
The target in a further data set is CYP2C19 (Homo sapiens (Human), UniProt P33261). The data set can be described thus: CYP P450 inhibition.
A further data set has as its target KIT (Homo sapiens (Human), UniProt P10721). The data set is described as follows: Kinase screening assay (IC50).
The target in another data set is RET (Homo sapiens (Human), UniProt P07949). The data set is described as follows: Kinase screening assay (IC50).
The next data set deals with hERG channel (Homo sapiens (Human), UniProt Q12809). The data set is described as follows: hERG Safety Assay, Ionworks high-throughput electrophysiology.
For the next data set, the system named is MCF7 cells. The data set can be described thus: Cell viability assay (PrestoBlue). It counts as cell-based. The conditions noted are these: Homo sapiens, MCF7, 120 h; cell viability at day 5; read-out: Antiproliferative activity (EC50) MCF7.
In data set [2] the test system is SYF fibroblasts (deficient for Src, Yes, and Fyn). The data set is described as follows: Cell viability assay (PrestoBlue). The format is cell-based, murine. The conditions noted are these: Mus musculus, Fibroblast, 120 h; cell viability at day 5; read-out: Antiproliferative activity (EC50) SYF (−/− Src).
Data set [3] concerns the target selection of recombinant kinases. The data set can be described thus: Kinase screening assay, panel summary. The format is biochemical, human. The conditions noted are these: 15 kinases of Table 2.

Read-outs that look alike come from different tables or passages of the source.

Usually solubility stands for the concentration that dissolves in the medium under given conditions. By inhibition is commonly meant the relative decrease from the control value, in per cent. As a reminder, the IC50 is the midpoint of a concentration-inhibition curve.

Chain of KIT (P10721 26-976): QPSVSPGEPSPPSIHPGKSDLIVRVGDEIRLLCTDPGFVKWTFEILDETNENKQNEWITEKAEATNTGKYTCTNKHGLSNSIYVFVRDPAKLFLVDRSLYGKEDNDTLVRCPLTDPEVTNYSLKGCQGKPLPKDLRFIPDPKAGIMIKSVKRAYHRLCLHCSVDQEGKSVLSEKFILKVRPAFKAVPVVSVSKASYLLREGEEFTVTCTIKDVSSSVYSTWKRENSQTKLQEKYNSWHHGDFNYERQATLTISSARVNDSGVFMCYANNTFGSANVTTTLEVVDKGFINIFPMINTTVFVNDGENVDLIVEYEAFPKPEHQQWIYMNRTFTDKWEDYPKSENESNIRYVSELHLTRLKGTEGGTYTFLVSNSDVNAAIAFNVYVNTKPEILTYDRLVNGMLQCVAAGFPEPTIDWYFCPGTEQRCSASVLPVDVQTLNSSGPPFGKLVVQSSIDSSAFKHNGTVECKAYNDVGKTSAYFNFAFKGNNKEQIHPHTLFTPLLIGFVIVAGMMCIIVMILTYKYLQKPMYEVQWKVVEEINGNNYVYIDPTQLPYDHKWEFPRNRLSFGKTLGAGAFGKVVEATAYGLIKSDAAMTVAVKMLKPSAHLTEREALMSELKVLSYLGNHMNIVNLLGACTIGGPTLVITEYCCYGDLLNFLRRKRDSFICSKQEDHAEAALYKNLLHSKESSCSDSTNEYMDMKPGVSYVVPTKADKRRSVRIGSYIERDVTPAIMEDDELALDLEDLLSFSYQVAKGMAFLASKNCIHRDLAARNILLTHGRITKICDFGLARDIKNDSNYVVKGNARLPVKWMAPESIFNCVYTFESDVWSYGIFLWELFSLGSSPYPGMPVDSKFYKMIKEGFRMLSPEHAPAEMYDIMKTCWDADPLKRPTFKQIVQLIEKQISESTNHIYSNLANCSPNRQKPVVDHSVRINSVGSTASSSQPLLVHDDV
Chain of RET (P07949 29-1114): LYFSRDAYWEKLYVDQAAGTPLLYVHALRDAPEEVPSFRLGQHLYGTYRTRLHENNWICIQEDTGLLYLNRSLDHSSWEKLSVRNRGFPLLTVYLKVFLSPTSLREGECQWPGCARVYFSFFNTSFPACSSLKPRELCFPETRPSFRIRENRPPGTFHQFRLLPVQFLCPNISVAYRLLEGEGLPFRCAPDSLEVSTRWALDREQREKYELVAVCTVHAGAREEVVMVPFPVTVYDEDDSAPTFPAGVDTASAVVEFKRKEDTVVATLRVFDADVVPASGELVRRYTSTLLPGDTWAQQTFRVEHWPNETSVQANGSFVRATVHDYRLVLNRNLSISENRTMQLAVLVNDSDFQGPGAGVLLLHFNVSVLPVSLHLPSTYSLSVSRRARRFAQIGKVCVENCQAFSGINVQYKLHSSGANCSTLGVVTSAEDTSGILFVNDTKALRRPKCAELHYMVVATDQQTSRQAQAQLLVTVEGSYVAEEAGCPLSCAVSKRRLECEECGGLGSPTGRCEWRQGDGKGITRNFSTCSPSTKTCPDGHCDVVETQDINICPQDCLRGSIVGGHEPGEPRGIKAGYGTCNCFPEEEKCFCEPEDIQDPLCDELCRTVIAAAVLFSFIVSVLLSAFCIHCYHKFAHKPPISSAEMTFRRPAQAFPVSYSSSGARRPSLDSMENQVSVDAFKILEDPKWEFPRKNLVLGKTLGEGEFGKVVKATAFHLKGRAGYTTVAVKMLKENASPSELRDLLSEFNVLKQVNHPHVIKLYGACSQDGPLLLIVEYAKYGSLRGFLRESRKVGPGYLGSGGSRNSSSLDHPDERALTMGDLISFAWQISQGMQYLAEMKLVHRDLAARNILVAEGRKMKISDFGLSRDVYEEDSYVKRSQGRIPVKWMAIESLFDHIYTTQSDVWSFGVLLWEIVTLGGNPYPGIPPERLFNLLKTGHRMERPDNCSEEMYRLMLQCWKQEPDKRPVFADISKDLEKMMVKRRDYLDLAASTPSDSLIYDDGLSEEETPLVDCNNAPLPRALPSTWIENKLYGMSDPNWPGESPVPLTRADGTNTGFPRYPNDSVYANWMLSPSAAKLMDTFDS
Chain of hERG channel (Q12809 whole entry): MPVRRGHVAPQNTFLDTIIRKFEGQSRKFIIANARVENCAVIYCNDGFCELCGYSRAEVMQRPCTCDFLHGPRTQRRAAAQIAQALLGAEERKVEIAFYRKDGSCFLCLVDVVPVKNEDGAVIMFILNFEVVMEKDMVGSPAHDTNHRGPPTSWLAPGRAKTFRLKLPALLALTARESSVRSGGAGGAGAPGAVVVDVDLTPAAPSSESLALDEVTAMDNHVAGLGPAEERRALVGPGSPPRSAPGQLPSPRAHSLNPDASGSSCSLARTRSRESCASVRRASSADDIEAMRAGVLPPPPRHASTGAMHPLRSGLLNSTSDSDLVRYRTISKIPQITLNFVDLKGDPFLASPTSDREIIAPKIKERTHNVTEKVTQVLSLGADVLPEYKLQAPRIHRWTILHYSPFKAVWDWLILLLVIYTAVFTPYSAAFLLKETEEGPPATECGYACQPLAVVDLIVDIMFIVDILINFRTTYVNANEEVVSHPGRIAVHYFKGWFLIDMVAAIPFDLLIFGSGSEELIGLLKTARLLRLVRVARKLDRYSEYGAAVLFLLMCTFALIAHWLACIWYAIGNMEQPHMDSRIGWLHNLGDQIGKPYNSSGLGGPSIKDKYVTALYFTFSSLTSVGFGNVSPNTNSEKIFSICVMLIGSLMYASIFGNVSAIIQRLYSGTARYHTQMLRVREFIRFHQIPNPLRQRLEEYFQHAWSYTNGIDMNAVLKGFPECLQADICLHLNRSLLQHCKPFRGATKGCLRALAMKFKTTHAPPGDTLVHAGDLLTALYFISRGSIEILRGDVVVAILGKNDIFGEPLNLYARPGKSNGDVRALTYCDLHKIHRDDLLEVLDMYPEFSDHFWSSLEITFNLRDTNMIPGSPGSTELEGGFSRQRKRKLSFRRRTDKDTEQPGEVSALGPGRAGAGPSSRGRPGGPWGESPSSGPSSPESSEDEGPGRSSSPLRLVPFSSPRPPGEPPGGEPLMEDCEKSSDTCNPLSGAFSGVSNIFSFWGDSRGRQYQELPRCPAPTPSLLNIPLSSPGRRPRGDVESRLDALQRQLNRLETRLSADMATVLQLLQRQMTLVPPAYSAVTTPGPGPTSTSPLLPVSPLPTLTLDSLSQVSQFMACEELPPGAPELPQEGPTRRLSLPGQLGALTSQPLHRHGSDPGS
Chain of CYP3A4 (P08684 whole entry): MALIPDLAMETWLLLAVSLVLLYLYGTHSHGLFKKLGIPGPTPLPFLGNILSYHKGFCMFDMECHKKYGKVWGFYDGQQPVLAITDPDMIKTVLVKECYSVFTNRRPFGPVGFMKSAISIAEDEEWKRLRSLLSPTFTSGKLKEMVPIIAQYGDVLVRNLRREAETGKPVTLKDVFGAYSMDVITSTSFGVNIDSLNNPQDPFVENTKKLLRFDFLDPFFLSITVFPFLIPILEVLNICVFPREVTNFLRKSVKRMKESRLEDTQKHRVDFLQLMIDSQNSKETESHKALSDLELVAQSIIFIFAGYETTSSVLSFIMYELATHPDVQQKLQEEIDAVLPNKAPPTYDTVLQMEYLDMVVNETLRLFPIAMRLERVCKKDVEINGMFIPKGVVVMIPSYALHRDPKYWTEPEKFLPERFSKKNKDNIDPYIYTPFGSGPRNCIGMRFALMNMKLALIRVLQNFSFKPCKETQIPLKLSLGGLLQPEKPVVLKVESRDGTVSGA
Chain of CYP2D6 (P10635 whole entry): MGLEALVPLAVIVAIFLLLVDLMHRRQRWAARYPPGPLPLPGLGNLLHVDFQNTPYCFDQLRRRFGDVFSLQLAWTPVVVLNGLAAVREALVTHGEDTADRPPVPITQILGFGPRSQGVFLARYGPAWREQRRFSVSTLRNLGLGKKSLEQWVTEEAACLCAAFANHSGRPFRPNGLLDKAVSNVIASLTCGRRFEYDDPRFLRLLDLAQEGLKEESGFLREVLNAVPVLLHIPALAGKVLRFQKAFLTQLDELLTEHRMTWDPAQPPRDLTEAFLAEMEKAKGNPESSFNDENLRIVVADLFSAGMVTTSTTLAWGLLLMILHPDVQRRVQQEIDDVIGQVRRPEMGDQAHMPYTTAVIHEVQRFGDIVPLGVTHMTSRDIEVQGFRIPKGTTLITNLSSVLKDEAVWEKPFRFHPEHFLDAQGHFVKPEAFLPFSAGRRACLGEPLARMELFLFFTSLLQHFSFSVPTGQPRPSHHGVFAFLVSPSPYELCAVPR
Chain of CYP2C9 (P11712 whole entry): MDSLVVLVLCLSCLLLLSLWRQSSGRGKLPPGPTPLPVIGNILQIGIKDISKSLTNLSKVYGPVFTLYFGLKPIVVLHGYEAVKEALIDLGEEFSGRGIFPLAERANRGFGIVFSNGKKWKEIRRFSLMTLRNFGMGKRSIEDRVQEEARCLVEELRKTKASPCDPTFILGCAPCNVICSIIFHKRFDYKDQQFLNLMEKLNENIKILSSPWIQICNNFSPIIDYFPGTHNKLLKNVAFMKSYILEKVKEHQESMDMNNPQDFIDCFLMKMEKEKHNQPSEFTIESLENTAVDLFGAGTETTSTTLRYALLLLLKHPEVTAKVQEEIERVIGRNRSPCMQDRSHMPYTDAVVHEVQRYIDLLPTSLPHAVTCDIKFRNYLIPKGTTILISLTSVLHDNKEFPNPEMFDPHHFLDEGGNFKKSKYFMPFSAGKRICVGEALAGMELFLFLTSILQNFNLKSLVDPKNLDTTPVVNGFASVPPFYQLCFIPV

In the case of `COc1cc(-c2nn(CCN3CCC(N(C)C)CC3)c3ncnc(N)c23)ccc1NC(=O)OC(C)(C)C` [Compound 506, tert-butyl N-[4-[4-amino-1-[2-[4-(dimethylamino)-1-piperidyl]ethyl]pyrazolo[3,4-d]pyrimidin-3-yl]-2-methoxy-phenyl]carbamate], the solubility in data set [1] was over 100 mg/mL. Also, the inhibition at 10 µM against CYP1A2 was 24.6%; at CYP3A4, -74.6%; against CYP2C9, -23.1%; at CYP2D6, 31.8%; at CYP2C19 it was -5.4%. Moreover, the half-maximal inhibitory concentration (IC50) against KIT was 5.13 µM; at KIT (read-out: Kinase Screening (IC50) c-KIT) it was over 1 µM; at KIT (read-out: Target inhibition (IC50) KIT, 10 μM ATP) it was over 1 µM; against RET it was over 10 µM; on RET (read-out: Kinase Screening (IC50) RET), over 1 µM; on RET (read-out: Target inhibition (IC50) RET, 10 μM ATP), over 1 µM. For the same compound, it took 18.2 µM to reach half-maximal inhibition at hERG channel (IC50).
As for `CN(C)C1CCN(CCn2nc(-c3ccc(CC(=O)O)cc3)c3c(N)ncnc32)CC1` [Compound 556, 2-[4-[4-amino-1-[2-[4-(dimethylamino)-1-piperidyl]ethyl]pyrazolo[3,4-d]pyrimidin-3-yl]phenyl]acetic acid], the EC50 (in the data set with MCF7 cells; in data set [2]) was over 10 µM each time. Moreover, the “Target inhibition (IC50), remark on the whole panel” value in data set [3] is recorded as “No inhibition found”.
